Test results reported in the SangsterLogP compilation.

| Compound | logP |
| --- | --- |
| CCCCOCCOCCOCc1cc2c(cc1CCC)OCO2 | 4.39 |
| C[C@H]1O[C@@H](O[C@H]2[C@@H](O)C[C@H](O[C@H]3[C@@H](O)C[C@H](O[C@H]4CC[C@@]5(C)[C@H](CC[C@@H]6[C@@H]5CC[C@]5(C)[C@@H](C7=CC(=O)OC7)CC[C@]65O)C4)O[C@@H]3C)O[C@@H]2C)C[C@H](O)[C@@H]1O | 3.42 |
| C=CCc1ccccc1OC[C@@H](O)CNC(C)C | 2.63 |
| CO/C=C(/C(=O)OC)c1ccccc1Oc1cc(Oc2ccccc2C#N)ncn1 | 2.97 |
| Oc1ccc(Oc2ccccc2)cc1 | 3.92 |
| CCOCn1c(-c2ccc(Cl)cc2)c(C#N)c(Br)c1C(F)(F)F | 4.61 |
| CC(C)(C)c1ccc(CCOc2ncnc3ccccc23)cc1 | 4.91 |
| COP(=S)(OC)SCC(=O)N(c1ccc(Cl)cc1)C(C)C | 3.8 |
| CN(C)CCC=C1c2ccccc2COc2ccccc21 | 3.75 |
| CC(C)C(C(=O)OC(C#N)c1cccc(Oc2ccccc2)c1)c1ccc(Cl)cc1 (stereo unspecified) | 5.71 |
| CC1=C(C(=O)Nc2ccccc2)S(=O)(=O)CCO1 | 1.13 |
| CC(C)N(C(=O)COc1nnc(C(F)(F)F)s1)c1ccc(F)cc1 | 3.19 |
| CON=C1C[C@]2(C[C@@H]3C[C@@H](C/C=C(\C)C[C@@H](C)C=C/C=C4\CO[C@@H]5[C@H](O)C(C)=C[C@@H](C(=O)O3)[C@]45O)O2)O[C@H](/C(C)=C/C(C)C)[C@H]1C | 4.99 |
| CCCN(CCC)c1c([N+](=O)[O-])cc(C(F)(F)F)cc1[N+](=O)[O-] | 4.98 |
| COc1ccc(-c2ccccc2)cc1NNC(=O)OC(C)C | 3.8 |
| N#Cc1c[nH]cc1-c1cccc(Cl)c1Cl | 3.78 |
